From PubChem BioAssay (NCI)
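In this assay, cells in 96-well plates receive the compound at five concentrations for 48 hours. Endpoints are linearly interpolated between the surrounding concentrations. Definition used: TGI = concentration required for complete inhibition of growth.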

Columns and labels:
Test in all cases: NCI anticancer screen, dose series, 48 h
KM12 colon = test system: KM12 colon
DMS 114 small cell lung = test system: DMS 114 small cell lung
RXF 393 renal = test system: RXF 393 renal
DMS 273 small cell lung = test system: DMS 273 small cell lung
DLD-1 colon = test system: DLD-1 colon
RPMI-8226 leukemia = test system: RPMI-8226 leukemia
SF-268 CNS = test system: SF-268 CNS
UACC-257 melanoma = test system: UACC-257 melanoma
COLO 205 colon = test system: COLO 205 colon
HT29 colon = test system: HT29 colon
SN12C renal = test system: SN12C renal
SF-539 CNS = test system: SF-539 CNS
UO-31 renal = test system: UO-31 renal
MOLT-4 leukemia = test system: MOLT-4 leukemia
OVCAR-4 ovarian = test system: OVCAR-4 ovarian
SK-MEL-5 melanoma = test system: SK-MEL-5 melanoma
NCI-H23 lung = test system: NCI-H23 lung
HOP-62 NSCLC = test system: HOP-62 NSCLC
CAKI-1 renal = test system: CAKI-1 renal
EKVX NSCLC = test system: EKVX NSCLC

With `CCN(CC)CCCOC(=O)/C=C/c1c(C)[nH]c(=O)[nH]c1=O` the TGI (KM12 colon) was over 625 µM, the TGI (DMS 114 small cell lung) was over 625 µM and the TGI (RXF 393 renal) was over 99.1 µM. For the same molecule, the TGI (DMS 273 small cell lung) was over 625 µM, the TGI (DLD-1 colon) was over 625 µM and the TGI (RPMI-8226 leukemia) was over 625 µM. For the same molecule, the TGI (SF-268 CNS) was over 625 µM, the TGI (UACC-257 melanoma) was over 625 µM and the TGI (COLO 205 colon) was over 625 µM. The TGI (HT29 colon) was over 394 µM, the TGI (SN12C renal) was over 463 µM and the TGI (SF-539 CNS) was over 625 µM. For the same molecule, the TGI (UO-31 renal) was over 625 µM, the TGI (MOLT-4 leukemia) was over 625 µM and the TGI (OVCAR-4 ovarian) was over 394 µM. It also gave a TGI (SK-MEL-5 melanoma) of over 625 µM, a TGI (NCI-H23 lung) of over 625 µM and a TGI (HOP-62 NSCLC) of over 625 µM. It also gave a TGI (CAKI-1 renal) of over 625 µM and a TGI (EKVX NSCLC) of over 625 µM.

In the case of `CCCCCCCCCCCCCCCCSCC(COC)COP(=O)([O-])OCC[N+](C)(C)C` (configuration not stated), the TGI (KM12 colon) is reported as 2.45 µM, the TGI (DMS 114 small cell lung) is reported as 20.8 µM and the TGI (RXF 393 renal) is reported as 15.5 µM. The TGI (DMS 273 small cell lung) was 3.9 µM, the TGI (DLD-1 colon) was 11.2 µM and the TGI (RPMI-8226 leukemia) was 8.48 µM. It also gave a TGI (SF-268 CNS) of 20.5 µM, a TGI (UACC-257 melanoma) of 28.8 µM and a TGI (COLO 205 colon) of 3.96 µM. The TGI (HT29 colon) was 12.8 µM, the TGI (SN12C renal) was 11.3 µM and the TGI (SF-539 CNS) was 29.7 µM. It also gave a TGI (UO-31 renal) of 20.3 µM, a TGI (MOLT-4 leukemia) of 6.05 µM and a TGI (OVCAR-4 ovarian) of 15.3 µM. It also gave a TGI (SK-MEL-5 melanoma) of 25.2 µM, a TGI (NCI-H23 lung) of 28.2 µM and a TGI (HOP-62 NSCLC) of 15.6 µM. For the same molecule, the TGI (CAKI-1 renal) was 12.7 µM and the TGI (EKVX NSCLC) was 28.4 µM.

Work on `C/C(=N\NS(=O)(=O)c1ccccc1)c1ccccc1` yielded a TGI (KM12 colon) of over 100 µM, a TGI (DMS 114 small cell lung) of over 100 µM and a TGI (RXF 393 renal) of over 100 µM. The TGI (DMS 273 small cell lung) was over 100 µM, the TGI (DLD-1 colon) was over 100 µM and the TGI (RPMI-8226 leukemia) was over 100 µM. For the same molecule, the TGI (SF-268 CNS) was over 100 µM, the TGI (UACC-257 melanoma) was over 100 µM and the TGI (COLO 205 colon) was over 100 µM. The TGI (HT29 colon) was over 100 µM, the TGI (SN12C renal) was over 100 µM and the TGI (SF-539 CNS) was over 100 µM. The TGI (UO-31 renal) was over 100 µM, the TGI (MOLT-4 leukemia) was over 100 µM and the TGI (OVCAR-4 ovarian) was over 100 µM. The TGI (SK-MEL-5 melanoma) was over 100 µM, the TGI (NCI-H23 lung) was over 100 µM and the TGI (HOP-62 NSCLC) was over 100 µM. For the same molecule, the TGI (CAKI-1 renal) was over 100 µM and the TGI (EKVX NSCLC) was over 100 µM.

In the case of `O=C(CC/C=C(/CS(=O)(=O)c1ccccc1)S(=O)(=O)c1ccccc1)c1ccccc1`, the TGI (KM12 colon) is reported as over 100 µM, the TGI (DMS 114 small cell lung) is reported as 83.4 µM and the TGI (RXF 393 renal) is reported as over 100 µM. For the same molecule, the TGI (DMS 273 small cell lung) was over 100 µM, the TGI (DLD-1 colon) was over 100 µM and the TGI (RPMI-8226 leukemia) was over 100 µM. It also gave a TGI (UACC-257 melanoma) of over 100 µM, a TGI (HT29 colon) of over 100 µM and a TGI (SN12C renal) of over 100 µM. For the same molecule, the TGI (SF-539 CNS) was over 100 µM, the TGI (UO-31 renal) was over 100 µM and the TGI (MOLT-4 leukemia) was over 100 µM. The TGI (OVCAR-4 ovarian) was over 100 µM, the TGI (SK-MEL-5 melanoma) was over 100 µM and the TGI (NCI-H23 lung) was over 100 µM. For the same molecule, the TGI (HOP-62 NSCLC) was over 100 µM and the TGI (EKVX NSCLC) was over 100 µM.

Work on `CC(=O)NCCC1CN(C(=O)/C=C\C#C[Si](C)(C)C)c2ccccc21` (configuration not stated) yielded a TGI (KM12 colon) of over 100 µM, a TGI (RXF 393 renal) of 55.3 µM and a TGI (RPMI-8226 leukemia) of over 100 µM. The TGI (SF-268 CNS) was over 100 µM, the TGI (UACC-257 melanoma) was 9.27 µM and the TGI (COLO 205 colon) was over 100 µM. The TGI (HT29 colon) was 58.9 µM, the TGI (SN12C renal) was over 100 µM and the TGI (SF-539 CNS) was 73.8 µM. For the same molecule, the TGI (UO-31 renal) was over 100 µM, the TGI (MOLT-4 leukemia) was over 100 µM and the TGI (OVCAR-4 ovarian) was 63.3 µM. For the same molecule, the TGI (SK-MEL-5 melanoma) was over 100 µM, the TGI (NCI-H23 lung) was 28.4 µM and the TGI (CAKI-1 renal) was 33.2 µM. It also gave a TGI (EKVX NSCLC) of 37.5 µM.

`O=C(NCCCCCCNC(=O)n1cc(F)c(=O)[nH]c1=O)NCCCOCCOCCCNC(=O)C(O)C(O)C(O)C(O)CO` (configuration not stated) showed a TGI (KM12 colon) of over 2.5 µM, a TGI (DMS 114 small cell lung) of over 2.5 µM and a TGI (RXF 393 renal) of over 2.5 µM. It also gave a TGI (DMS 273 small cell lung) of over 2.5 µM, a TGI (DLD-1 colon) of over 2.5 µM and a TGI (RPMI-8226 leukemia) of over 2.5 µM. For the same molecule, the TGI (SF-268 CNS) was over 2.5 µM, the TGI (UACC-257 melanoma) was over 2.5 µM and the TGI (COLO 205 colon) was over 2.5 µM. The TGI (HT29 colon) was over 2.5 µM, the TGI (SN12C renal) was over 2.5 µM and the TGI (SF-539 CNS) was over 2.5 µM. It also gave a TGI (UO-31 renal) of over 2.5 µM, a TGI (MOLT-4 leukemia) of over 2.5 µM and a TGI (OVCAR-4 ovarian) of over 2.5 µM. For the same molecule, the TGI (SK-MEL-5 melanoma) was over 2.5 µM, the TGI (NCI-H23 lung) was over 2.5 µM and the TGI (HOP-62 NSCLC) was over 2.5 µM. For the same molecule, the TGI (EKVX NSCLC) was over 2.5 µM.

Work on `O=C1CC(=O)c2c(O)cc(O)c(c2O)-c2c(ccc(O)c2O)C2=CC(=O)c3c(O)cc(O)c(c3O2)-c2c1ccc(O)c2O` (tested in a mixture with another compound) yielded a TGI (RXF 393 renal) of over 50 µM, a TGI (SF-268 CNS) of over 50 µM and a TGI (UACC-257 melanoma) of over 50 µM. For the same molecule, the TGI (COLO 205 colon) was over 50 µM, the TGI (HT29 colon) was over 50 µM and the TGI (SN12C renal) was over 50 µM. It also gave a TGI (SF-539 CNS) of over 50 µM, a TGI (UO-31 renal) of over 50 µM and a TGI (MOLT-4 leukemia) of over 50 µM. It also gave a TGI (OVCAR-4 ovarian) of over 50 µM, a TGI (SK-MEL-5 melanoma) of over 50 µM and a TGI (NCI-H23 lung) of over 50 µM. It also gave a TGI (HOP-62 NSCLC) of over 50 µM, a TGI (CAKI-1 renal) of over 50 µM and a TGI (EKVX NSCLC) of over 50 µM.

With `CC(=O)OCC1OC(n2cc(F)c(=O)[nH]c2=O)C(N)C(OC(C)=O)C1OC(C)=O` (configuration not stated) the TGI (KM12 colon) was over 100 µM, the TGI (DMS 114 small cell lung) was over 100 µM and the TGI (RXF 393 renal) was over 100 µM. It also gave a TGI (DMS 273 small cell lung) of over 100 µM, a TGI (DLD-1 colon) of over 100 µM and a TGI (RPMI-8226 leukemia) of over 100 µM. The TGI (SF-268 CNS) was over 100 µM, the TGI (UACC-257 melanoma) was over 100 µM and the TGI (COLO 205 colon) was over 100 µM. For the same molecule, the TGI (HT29 colon) was over 100 µM, the TGI (SN12C renal) was over 100 µM and the TGI (SF-539 CNS) was over 100 µM. The TGI (UO-31 renal) was over 100 µM, the TGI (MOLT-4 leukemia) was over 100 µM and the TGI (OVCAR-4 ovarian) was over 100 µM. The TGI (SK-MEL-5 melanoma) was over 100 µM, the TGI (NCI-H23 lung) was over 100 µM and the TGI (HOP-62 NSCLC) was over 100 µM. It also gave a TGI (CAKI-1 renal) of over 100 µM and a TGI (EKVX NSCLC) of over 100 µM.
